Like-named read-outs stand apart in the source and are kept apart here.
What was measured:
HIV-1 IIIb [1] = test: Antiviral assay in MT-4 cells; type: cell-based; conditions: Human immunodeficiency virus 1, MT4, 120 h, 5 days
Procedure: (§1) For the antiviral assay utilizing MT-2 and MT-4 cells, 50 μl of a 2× test concentration of 5-fold serially diluted compound in culture medium with 10% FBS was added to each well of a 96-well plate (9 concentrations) in triplicate. MT-2 and MT-4 cells were infected with HIV-1 IIIb at a multiplicity of infection (MOI) of 0.01 for 3 h. Fifty microliters of infected cell suspension in culture medium with 10% FBS (∼1.5 × 10^4 cells) then was added to each well containing 50 μl of diluted compound. The plates were then incubated at 37°C for 5 days. After 5 days of incubation, 100 μl of CellTiter-Glo reagent (Promega Biosciences, Inc., Madison, WI) was added to each well containing MT-2 or MT-4 cells. Cell lysis was carried out by incubation at room temperature for 10 min and chemiluminescence was read. For compound cytotoxicity assessment, the protocol was identical except that uninfected cells were used and compounds were serially diluted 3-fold.

in vitro [2] = conditions: human, CC50 in Primary Human Hepatocytes
HIV-1 IIIb [3] = conditions: for PAEC95 (protein binding-adjusted EC95): EC95 in MT-4 with human serum shift; for EC95: MT-4 cells, calculated using Hill slope
Procedure: Each compound series was prepared several times independently in quadruplicate to capture the variations in Hill slope associated with preparation of compound serial dilutions. The assay was performed in a 384-well format. MT-4 cells were infected in bulk at the same MOI as that described above, and the plates were developed with CellTiter-Glo reagent 5 days postinfection.

HCV 2a Replicon = test: Anti-HCV activity, HCV 2a replicon; conditions: Hepatitis C virus, Huh-7
HIV-2 CDC 310319 = test: Antiviral assay against HIV-2 isolate in fresh human PBMCs (RT endpoint); conditions: Human immunodeficiency virus 2, PBMC
HIV-1 clonal variants = test: PhenoSense integrase assay, clonal variants from EVG/COBI/FTC/TDF virologic failures; type: cell-based; conditions: Human immunodeficiency virus 1, NL43, read-out: mean EC50 of wild-type virus
Description: Clonal Analysis of HIV-1 from Patients. Plasma from 16 patients treated in Studies GS-US-236-0102 and GS-US-236-0103 with confirmed virologic failure and resistance development in the HIV-1 integrase gene were sent to Monogram Biosciences (South San Francisco, CA) for clonal analysis. The HIV-1 RNA was isolated and the cDNA was synthesized using Monogram proprietary primers. Using proprietary primers, PCR amplification of the entire protease, reverse transcriptase, and integrase coding regions of the pol gene were performed. PCR products were inserted into T/A cloning vectors.
Approximately 20 clones were chosen per patient sample for sequencing using proprietary primers. A subset of clones was chosen for phenotypic analysis based on the presence of INSTI resistance mutations. Resistance test vectors containing the patient-derived integrase coding region from selected clones were constructed using standard Monogram Biosciences protocols. […]
values) in these clones were obtained through a contract study by Monogram Biosciences using the PhenoSense integrase assay. The fold-change from the NL4-3 wild-type reference vector values was determined.

[4] = tested on: INSTI-resistant HIV-1 mutants (HXB2); test: microbe, parasite or virus in culture; type: cell-based
HBV Production = test: microbe, parasite or virus in culture; conditions: Hepatitis B virus
[5] = tested on: HRV (mixture of HRV1A, HRV14, HRV16); test: microbe, parasite or virus in culture; type: cell-based; conditions: Human rhinovirus sp., H1-HeLa
HIV-1 IIIb [6] = test: HIV breakthrough selection in MT-2 cells; conditions: MT-2, HIV-1 IIIb; FTC 4× EC95, EVG 5× EC95, BIC and DTG 2.5× and 5× EC95; up to day 32
in vitro [7] = conditions: human, 6 days
Description: Freshly isolated human peripheral blood mononuclear cells (PBMCs) were obtained from healthy volunteers (supplied by AllCells, Inc., Alameda, CA). Blood donors were negative for HIV-1, hepatitis B, and hepatitis C viral infections. CD4^+ T lymphocytes were isolated by negative selection using a magnetically labeled antibody cocktail ([sequence] Technologies Inc., Vancouver, Canada) and cultured in RPMI cell culture media (Life Technologies, Grand Island, NY) supplemented with 10% FBS. CD4^+ T cells were activated for 48 h at 37°C by addition of 1 μg/ml phytohemagglutinin (PHA; Sigma, St. Louis, MO) and 5 ng/ml interleukin-2 (IL-2; Roche Diagnostics, Indianapolis, IN). […] Human PBMCs were used for cytotoxicity assays after culturing for 48 h in either complete RPMI medium alone (resting conditions) or RPMI containing 1 μg/ml PHA and 5 ng/ml IL-2 (activated conditions).

[8] = tested on: NRTI-, NNRTI- and PI-Resistant HIV-1 Mutants; test: Antiviral activity against NRTI-, NNRTI- and PI-resistant HIV-1 mutants; type: cell-based; conditions: Human immunodeficiency virus 1; WT, Table S7
HIV-1 BaL = conditions: primary CD4+ T-cells, 35 days, drug at tissue culture equivalent clinical Cmin (FTC 160 × EC50)
[9] = Cytotoxicity assay in MT-2 cells; type: cell-based; conditions: human, uninfected MT-2 cells
Procedure: as §1

[10] = tested on: inhibitor-selected HIV-1 IIIb passages; test: Phenotypic profile of selected HIV-1 passages; type: cell-based; conditions: Human immunodeficiency virus 1, IIIB
Influenza A/PC/1/73 = test: microbe, parasite or virus in culture; type: cell-based; conditions: NHBE
[11] = Human immunodeficiency virus 1, HXB2, IN mutant E92Q
[12] = Human immunodeficiency virus 1, HXB2, IN mutant E92Q/N155H
[13] = Human immunodeficiency virus 1, HXB2, IN mutant E138K/Q148K
[14] = Human immunodeficiency virus 1, HXB2, IN mutant G140S/Q148R
[15] = Human immunodeficiency virus 1, HXB2, IN mutant M50I (BIC/DTG selection)
[16] = Human immunodeficiency virus 1, HXB2, IN mutant M50I/R263K (BIC selection)
[17] = Human immunodeficiency virus 1, HXB2, IN mutant M50I/S119R/R263K (DTG selection)
[18] = Human immunodeficiency virus 1, HXB2, IN mutant N155H
[19] = Human immunodeficiency virus 1, HXB2, IN mutant N155H/Q148R
[20] = Human immunodeficiency virus 1, HXB2, IN mutant Q148R
[21] = Human immunodeficiency virus 1, HXB2, IN mutant R263K (BIC/DTG selection), Table 7
[22] = Human immunodeficiency virus 1, HXB2, IN mutant R263K, Table 6
[23] = Human immunodeficiency virus 1, HXB2, IN mutant S119R (DTG selection)
[24] = Human immunodeficiency virus 1, HXB2, IN mutant S119R/R263K (DTG selection)
[25] = Human immunodeficiency virus 1, HXB2, IN mutant S153Y (DTG selection)
[26] = Human immunodeficiency virus 1, HXB2, IN mutant S153Y/R263K (DTG selection)
[27] = Human immunodeficiency virus 1, HXB2, IN mutant Y143R
[28] = Human immunodeficiency virus 1, HXB2, WT (HXB2), Table 6, read-out: EC50
[29] = CC50, Activated PBMCs (IL-2/PHA 2 days)
[30] = 480 h, selected virus EVG P2 (day 20, 7.2 nM)
[31] = selected virus BIC P3 (day 47, 6 nM)
[32] = selected virus BIC P5 (day 71, 12 nM)
[33] = selected virus BIC P6 (day 86, 24 nM)
[34] = selected virus BIC P8 (day 156, 96 nM)
[35] = selected virus BIC P9 (day 181, 192 nM)
[36] = selected virus BIC P10 (day 234, 384 nM)
[37] = selected virus DTG P3Lo (day 59, 6.4 nM)
[38] = selected virus DTG P4 (day 87, 9.6 nM)
[39] = selected virus DTG P5 (day 97, 14.4 nM)
[40] = selected virus DTG P7 (day 139, 32.4 nM)
[41] = selected virus DTG P9 (day 174, 72.9 nM)
[42] = selected virus DTG P10 (day 202, 109.4 nM)
[43] = selected virus EVG P4 (day 41, 28.8 nM)
[44] = selected virus EVG P6 (day 56, 115 nM)
[45] = selected virus EVG P7 (day 67, 230 nM)
[46] = selected virus EVG P9 (day 94, 922 nM)
[47] = selected virus EVG P10 (day 119, 1843 nM)

## O=C(NCc1c(F)cc(F)cc1F)c1cn2c(c(O)c1=O)C(=O)N1[C@H]3CC[C@H](C3)O[C@@H]1C2 [BIC, Bictegravir]
HIV-1 IIIb [1]
  EC50: 2.4 ± 0.4 nM
In vitro [2]; Donor 1
  CC50: > 100 µM
In vitro [2]; Donor 2
  CC50: > 100 µM
HIV-1 IIIb [3]
  PAEC95 (protein binding-adjusted EC95): 361 nM
  EC95: 8.3 nM
HCV 2a Replicon
  EC50: > 44 µM
HIV-2 CDC 310319
  EC50: 1.7 ± 1 nM
HIV-1 clonal variants
  EC50: 1.55 nM
[4]; [11]
  EC50: 2 ± 0.8 nM
[4]; [12]
  EC50: 2 ± 0.2 nM
[4]; [13]
  EC50: 13.7 ± 1.2 nM
[4]; [14]
  EC50: 3.1 ± 0.8 nM
[4]; [15]
  EC50: 1.9 ± 0.3 nM
[4]; [16]
  EC50: 4.2 ± 0.9 nM
[4]; [17]
  EC50: 6.4 ± 1.6 nM
[4]; [18]
  EC50: 1.6 ± 0.4 nM
[4]; [19]
  EC50: 7.1 ± 4.3 nM
[4]; [20]
  EC50: 1 ± 0.3 nM
[4]; [21]
  EC50: 3.2 ± 0.7 nM
[4]; [22]
  EC50: 2.9 ± 0.7 nM
[4]; [23]
  EC50: 2.7 ± 0.7 nM
[4]; [24]
  EC50: 4.2 ± 1.3 nM
[4]; [25]
  EC50: 3.9 ± 0.7 nM
[4]; [26]
  EC50: 8.3 ± 1.4 nM
[4]; [27]
  EC50: 1.8 ± 0.5 nM
[4]; [28]
  EC50: 1.6 ± 0.4 nM
[4]; Human immunodeficiency virus 1, HXB2, WT (HXB2), Table 7, read-out: EC50
  EC50: 1.5 ± 0.3 nM
[4]; {}
  cross-resistance to single-mutant HIV-1 variants: 1-2 fold
HBV Production
  EC50: > 50 µM
[5]
  EC50: > 50 µM
HIV-1 IIIb [6]
  day postinfection of HIV-1 breakthrough: no virus breakthrough was observed
In vitro [7]; [29]
  CC50: 5.7 µM
In vitro [7]; CC50, Resting PBMCs
  CC50: 8.4 µM
[8]
  EC50: 1.7 ± 0.5 nM
HIV-1 BaL
  Frequency of Viral Breakthrough with RAMs: 0%
  p24+ Wells: 0/24
[9]
  CC50 at 5 days: 10.3 µM
[10]; [30]
  EC50: 5.8 nM
[10]; HIV-1-IIIb (unselected)
  EC50: 2.2 nM
[10]; [31]
  EC50: 3.8 nM
[10]; [32]
  EC50: 5.8 nM
[10]; [33]
  EC50: 7.8 nM
[10]; [34]
  EC50: 11.2 nM
[10]; [35]
  EC50: 17.5 nM
[10]; [36]
  EC50: 13.5 nM
[10]; [37]
  EC50: 2.9 nM
[10]; [38]
  EC50: 7.8 nM
[10]; [39]
  EC50: 10.6 nM
[10]; [40]
  EC50: 21.8 nM
[10]; [41]
  EC50: 23.8 nM
[10]; [42]
  EC50: 30 nM
[10]; [43]
  EC50: 6.5 nM
[10]; [44]
  EC50: 6.8 nM
[10]; [45]
  EC50: 8.9 nM
[10]; [46]
  EC50: 6.8 nM
[10]; [47]
  EC50: 2.9 nM
Influenza A/PC/1/73
  EC50: 53.5 µM

## C[C@@H]1CCO[C@H]2Cn3cc(C(=O)NCc4ccc(F)cc4F)c(=O)c(O)c3C(=O)N12 [DTG, Dolutegravir]
HIV-1 IIIb [1]
  EC50: 1.5 ± 0.3 nM
In vitro [2]; Donor 1
  CC50: > 100 µM
In vitro [2]; Donor 2
  CC50: > 100 µM
HIV-1 IIIb [3]
  PAEC95 (protein binding-adjusted EC95): 204 nM
  EC95: 7.4 nM
HCV 2a Replicon
  EC50: > 44 µM
HIV-2 CDC 310319
  EC50: 2.5 ± 0.5 nM
[4]; [11]
  EC50: 1.8 ± 0.5 nM
[4]; [12]
  EC50: 2.8 ± 0.6 nM
[4]; [13]
  EC50: 13.7 ± 2.1 nM
[4]; [14]
  EC50: 6.5 ± 1.2 nM
[4]; [15]
  EC50: 2 ± 0.2 nM
[4]; [16]
  EC50: 3.6 ± 0.5 nM
[4]; [17]
  EC50: 6.2 ± 2.4 nM
[4]; [18]
  EC50: 2.4 ± 0.6 nM
[4]; [19]
  EC50: 4.7 ± 1.5 nM
[4]; [20]
  EC50: 1 ± 0.3 nM
[4]; [21]
  EC50: 3.6 ± 0.4 nM
[4]; [22]
  EC50: 2.5 ± 0.4 nM
[4]; [23]
  EC50: 2.1 ± 0.7 nM
[4]; [24]
  EC50: 3.6 ± 0.8 nM
[4]; [25]
  EC50: 4 ± 1.1 nM
[4]; [26]
  EC50: 6.4 ± 0.8 nM
[4]; [27]
  EC50: 1.9 ± 0.5 nM
[4]; [28]
  EC50: 1.4 ± 0.3 nM
[4]; {}
  levels of resistance of double IN mutants: 2.1-10 fold
HBV Production
  EC50: > 50 µM
[5]
  EC50: > 50 µM
HIV-1 IIIb [6]
  day postinfection of HIV-1 breakthrough: no virus breakthrough was observed
In vitro [7]; [29]
  CC50: 23.9 µM
In vitro [7]; CC50, Resting PBMCs
  CC50: 30.6 µM
[8]
  EC50: 1.6 ± 0.5 nM
HIV-1 BaL
  Frequency of Viral Breakthrough with RAMs: 0%
  p24+ Wells: 0/24
[9]
  CC50 at 5 days: 5.35 µM
[10]; [30]
  EC50: 5.4 nM
[10]; HIV-1-IIIb (unselected)
  EC50: 2.5 nM
[10]; [31]
  EC50: 3.6 nM
[10]; [32]
  EC50: 6.4 nM
[10]; [33]
  EC50: 8.3 nM
[10]; [34]
  EC50: 12 nM
[10]; [35]
  EC50: 19.1 nM
[10]; [36]
  EC50: 14.7 nM
[10]; [37]
  EC50: 3.2 nM
[10]; [38]
  EC50: 7.8 nM
[10]; [39]
  EC50: 10.3 nM
[10]; [40]
  EC50: 12.4 nM
[10]; [41]
  EC50: 15.6 nM
[10]; [42]
  EC50: 19.7 nM
[10]; [43]
  EC50: 7.1 nM
[10]; [44]
  EC50: 7.1 nM
[10]; [45]
  EC50: 8.1 nM
[10]; [46]
  EC50: 6.6 nM
[10]; [47]
  EC50: 3.5 nM
Influenza A/PC/1/73
  EC50: 12.8 µM

From PMC5118987 (Antimicrobial Agents and Chemotherapy, 2016)
